Test results as given in article PMC5469811, “Identification of GXXXXG motif in Chrysophsin-1 and its implication in the design of analogs with cell-selective antimicrobial and anti-endotoxin activities” (Scientific Reports, 2017).
Converted amounts (≈) assume the structure as drawn. Residues, ends and D or L forms follow the SMILES beside them.

How the values were obtained:
E. coli (ATCC 25922) = type: cell-based, Escherichia coli; conditions: ATCC 25922, 1 h
Summary of the method: (§1)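 E. coli ATCC 25922 at 10^6 CFU/ml in MH broth with physiological divalent and monovalent salts was exposed to serial peptide dilutions, 18 h shaking at 37 °C, and MIC read. Variants: peptides preheated 1 h at 4, 60 or 90 °C, or assay diluent with 10% fetal bovine serum, 0.4% BSA, 0.02% acetic acid.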

E. coli ATCC 25922 = type: cell-based, Escherichia coli; conditions: ATCC 25922, 18 h
Summary of the method: as §1

[1] = system: BALB/c mice challenged with lethal dose of LPS; experiment: Anti-LPS survival assay; type: in vivo, mouse; conditions: LPS 15 mgKg−1 i.p. plus peptide single dose 5 mgKg−1, 7 days, five mice per group, LPS-only mice all died within 24 h
Method: For survival assay, mice were challenged intraperitoneally with LPS at a lethal dose of 15 mgKg^−1 E. coli 0111:B4[5]. Control mice were injected with an equal volume of PBS. G13P-Chr-1 at a single dose of 5 mgKg^−1 was injected in the mice groups that were already administered with 15 mgKg^−1 of LPS. Each group contained five mice. The mortality of mice was monitored up to 7 days and weight change was monitored every day. The peptide G13P-Chr-1 only was also injected in two groups of mice at 5 mgKg^−1 and 10 mgKg^−1 to check any mortality in mice by peptide only treatment.

[2] = system: Staphylococcus aureus (ATCC 700699 MRSA); experiment: microbe, parasite or virus in culture; type: cell-based; conditions: ATCC 700699; read-out: Minimum inhibitory concentration (MIC)
Summary of the method: (§2)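 Serial 2-fold dilution MIC; triplicate runs, averaged.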

[3] = system: Escherichia coli (ATCC 25922); experiment: microbe, parasite or virus in culture; type: cell-based; conditions: ATCC 25922; read-out: Minimum inhibitory concentration (MIC)
Summary of the method: as §2

[4] = system: Staphylococcus aureus (ATCC 29213); experiment: microbe, parasite or virus in culture; type: cell-based; conditions: ATCC 29213; read-out: Minimum inhibitory concentration (MIC)
Summary of the method: as §2

[5] = system: Pseudomonas aeruginosa (ATCC BAA-427); experiment: microbe, parasite or virus in culture; type: cell-based; conditions: ATCC BAA-427; read-out: Minimum inhibitory concentration (MIC)
Summary of the method: as §2

[6] = system: Bacillus subtilis (ATCC 6633); experiment: microbe, parasite or virus in culture; type: cell-based; conditions: ATCC 6633; read-out: Minimum inhibitory concentration (MIC)
Summary of the method: as §2

[7] = system: Staphylococcus aureus (ATCC 700698 MRSA); experiment: microbe, parasite or virus in culture; type: cell-based; conditions: ATCC 700698; read-out: Minimum inhibitory concentration (MIC)
Summary of the method: as §2

[8] = system: Klebsiella pneumoniae (ATCC 27736); experiment: microbe, parasite or virus in culture; type: cell-based; conditions: ATCC 27736; read-out: Minimum inhibitory concentration (MIC)
Summary of the method: as §2

[9] = system: Escherichia coli (ATCC 9637); experiment: microbe, parasite or virus in culture; type: cell-based; conditions: ATCC 9637; read-out: Minimum inhibitory concentration (MIC)
Summary of the method: as §2

[10] = system: Staphylococcus aureus (ATCC 33592) Methicillin resistant Genatmicin resistant; experiment: microbe, parasite or virus in culture; type: cell-based; conditions: ATCC 33592; read-out: Minimum inhibitory concentration (MIC)
Summary of the method: as §2

[11] = system: Staphylococcus aureus (ATCC 25923); experiment: microbe, parasite or virus in culture; type: cell-based; conditions: ATCC 25923; read-out: Minimum inhibitory concentration (MIC)
Summary of the method: as §2

[12] = system: Sporothrix schenckii (Patient isolates); experiment: microbe, parasite or virus in culture; type: cell-based; conditions: 48 h; read-out: Minimum inhibitory concentration (MIC)
[13] = system: LPS-induced TNF-α, IL-6 and IFN-γ in serum of BALB/c mice; experiment: In vivo inhibition of LPS mediated cytokine production; design: species or system mouse; conditions: LPS 10 mgKg−1 plus peptide 3 mgKg−1, 1, 2, 4, 6 h, ELISA, versus LPS only
Method: Enzyme-linked immunosorbent assays (ELISAs) were carried out to estimate the amount of tumor necrosis factor alpha (TNF-α) and interleukin-1β (IL-1β) secreted by LPS-treated THP-1 cells in the presence of peptides after 4–6 h of incubation. The levels of these cytokines in the culture supernatant of untreated and LPS-treated cells were taken as the negative and positive respectively, to calculate the percent inhibition by the peptides. For RANTES estimation the peptide LPS incubation was kept up to 24 h. The experiments were repeated twice reported as percentage inhibition. The absorbance of LPS treated cell supernatant was taken as zero inhibition. Similar ELISAs were performed to estimate the amount of TNF-α IL-6 and IFN-γ secreted by BALB/c mouse blood, which was collected from the orbital sinus at different time points post LPS injection, by using enzyme-linked immunosorbent assay kits for mouse TNF-α (BD Biosciences), IL-6 (BD Biosciences) and IFN-γ (BD Biosciences).
All the mice were divided into three experimental groups. Except the control group which was injected with PBS only, the other two groups were challenged with E. coli O111: B4 LPS at 10 mgkg^−1 of body weight in the presence and in the absence of 3 mgkg^−1 peptide. Blood was collected 1, 2, 4 and 6 h post LPS and peptide injection by the retro-orbital bleeding of mice. […]

S. aureus (ATCC 25923) = type: cell-based, Staphylococcus aureus; conditions: ATCC 25923, 1 h

CC[C@H](C)[C@H](NC(=O)[C@H](C)NC(=O)[C@H](CCCCN)NC(=O)[C@@H]1CCCN1C(=O)[C@H](C)NC(=O)[C@H](Cc1c[nH]cn1)NC(=O)[C@@H](NC(=O)[C@H](C)NC(=O)CNC(=O)[C@H](CCCCN)NC(=O)[C@@H](NC(=O)[C@H](CC(C)C)NC(=O)[C@H](Cc1c[nH]c2ccccc12)NC(=O)CNC(=O)[C@H](Cc1ccccc1)NC(=O)[C@@H](N)Cc1ccccc1)[C@@H](C)CC)[C@@H](C)CC)C(=O)N[C@@H](Cc1c[nH]cn1)C(=O)NCC(=O)N[C@@H](CC(C)C)C(=O)N[C@H](C(=O)N[C@@H](Cc1c[nH]cn1)C(=O)N[C@@H](CCCNC(=N)N)C(=O)N[C@@H](CCCNC(=N)N)C(=O)N[C@@H](CCCNC(=N)N)C(=O)N[C@@H](Cc1c[nH]cn1)C(N)=O)[C@@H](C)CC [Peptide G13P-Chr-1] (H-FFGWLIKGAIHAPKAIHGLIHRRRH-NH2)
Antibacterial activity (MIC) after incubating peptide at 4 °C (E. coli (ATCC 25922)): 5 µM | Antibacterial activity (MIC) after incubating peptide at 60 °C (E. coli (ATCC 25922)): 8.6 µM | Antibacterial activity (MIC) after incubating peptide at 90 °C (E. coli (ATCC 25922)): 12.3 µM | Antibacterial activity (MIC) in the presence of 10% FBS (E. coli ATCC 25922): 8.6 µM | Antibacterial activity (MIC) in the presence of FeCl3 (E. coli ATCC 25922): 4.1 µM | Antibacterial activity (MIC) in the presence of KCl (E. coli ATCC 25922): 4.3 µM | Antibacterial activity (MIC) in the presence of MgCl2 (E. coli ATCC 25922): 4.3 µM | Antibacterial activity (MIC) in the presence of NH4Cl (E. coli ATCC 25922): 2.0 µM | Antibacterial activity (MIC) in the presence of NaCl (E. coli ATCC 25922): 8.6 µM | survival of mice [1]: 40% | MIC [2]: 1.6 µM (≈ 4.69 µg/mL) | MIC [3]: 5 µM (≈ 14.7 µg/mL) | MIC [4]: 1.6 µM (≈ 4.69 µg/mL) | MIC [5]: 6.8 µM (≈ 19.9 µg/mL) | MIC [6]: 3 µM (≈ 8.79 µg/mL) | MIC [7]: 3 µM (≈ 8.79 µg/mL) | MIC [8]: 6.8 µM (≈ 19.9 µg/mL) | MIC [9]: 3 µM (≈ 8.79 µg/mL) | MIC [10]: 1.6 µM (≈ 4.69 µg/mL) | MIC [11]: 3 µM (≈ 8.79 µg/mL) | MIC [12]: 27.2 µM (≈ 79.7 µg/mL) | LPS-induced production of TNF-α, IL-6 and IFN-γ in serum [13]: significant reduction | Antibacterial activity (MIC) after incubating peptide at 4 °C (S. aureus (ATCC 25923)): 3 µM | Antibacterial activity (MIC) after incubating peptide at 60 °C (S. aureus (ATCC 25923)): 13 µM | Antibacterial activity (MIC) after incubating peptide at 90 °C (S. aureus (ATCC 25923)): 17.3 µM
